The target of this assay is T1, human serum albumin (HSA) (Homo sapiens, UniProt P02768).
T1 construct: gene ALB; commercial HSA from Sigma-Aldrich, full mature protein, untagged, monomeric
As to the kind of experiment: isothermal titration calorimetry, independent binding model. Conditions: read-out: Ka (converted). A general note: Isothermal titration calorimetry measures the heat released or taken up as one component is titrated into another.

T1 sequence (P02768 25-609): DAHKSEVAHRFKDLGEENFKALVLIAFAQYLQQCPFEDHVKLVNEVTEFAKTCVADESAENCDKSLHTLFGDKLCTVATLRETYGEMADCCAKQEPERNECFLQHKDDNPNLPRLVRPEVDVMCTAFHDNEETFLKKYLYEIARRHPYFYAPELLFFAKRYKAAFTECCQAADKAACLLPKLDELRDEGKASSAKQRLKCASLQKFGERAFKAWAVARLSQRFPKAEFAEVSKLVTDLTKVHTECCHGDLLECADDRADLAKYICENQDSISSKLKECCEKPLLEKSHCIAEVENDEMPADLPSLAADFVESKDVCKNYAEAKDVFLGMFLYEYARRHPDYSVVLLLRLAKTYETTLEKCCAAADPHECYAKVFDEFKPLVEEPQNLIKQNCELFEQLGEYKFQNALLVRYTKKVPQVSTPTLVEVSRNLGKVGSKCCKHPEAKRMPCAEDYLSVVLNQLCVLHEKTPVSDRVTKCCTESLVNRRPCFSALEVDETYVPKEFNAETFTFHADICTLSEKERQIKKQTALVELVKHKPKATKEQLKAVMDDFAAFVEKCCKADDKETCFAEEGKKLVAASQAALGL

Regarding `Cc1csc(N/N=C/c2ccc(O)c(O)c2)n1` [compound 5, (E)-2-(3,4-dihydroxybenzylidene)-1-(4-methylthiazol-2-yl)hydrazin-1-ium chloride], the Kd was 140 µM.

The record behind these values is publication PMC9312188, “Antioxidant Activity Evaluation and Assessment of the Binding Affinity to HSA of a New Catechol Hydrazinyl-Thiazole Derivative” (Antioxidants, 2022).
